# According to patent US6706740B2, “Fungicidal heterocyclic aromatic amides and their compositions, methods of use and preparation” (Dow AgroSciences LLC, priority 1999, dated 2004):
# Where two headings read alike, the source gives them in different places.
# Legend:
# [1] = tested on: Magnaporthe grisea (Pyricularia oryzae—PYRIOR); assay: microbe, parasite or virus in culture; format: cell-based; conditions: Pyricularia oryzae, read-out: PYRIOR in vitro Growth Inhibition
# [2] = tested on: Rhizoctonia solani (RHIZSO); assay: microbe, parasite or virus in culture; format: cell-based; conditions: Rhizoctonia solani, read-out: RHIZSO in vitro Growth Inhibition
# [3] = tested on: Mycosphaerella graminicola (Septoria tritici—SEPTTR); assay: In vitro fungal growth inhibition, Mycosphaerella graminicola (SEPTTR); format: cell-based; conditions: Zymoseptoria tritici, read-out: SEPTTR in vitro Growth Inhibition
# [4] = tested on: Stagonospora nodorum (Leptosphaeria nodorum—LEPTNO); assay: In vitro fungal growth inhibition, Stagonospora nodorum (LEPTNO); format: cell-based; conditions: Leptosphaeria, read-out: LEPTNO in vitro Growth Inhibition
# Ustilago maydis (USTIMA) = assay: microbe, parasite or virus in culture; format: cell-based; conditions: Mycosarcoma maydis, read-out: USTIMA in vitro Growth Inhibition
# [5] = tested on: Phytophthora infestans (PHYTIN); assay: microbe, parasite or virus in culture; format: cell-based; conditions: Phytophthora infestans, read-out: PHYTIN in vitro Growth Inhibition
# [6] = tested on: Phytophthora infestans—PHYTIN; assay: whole plant or invertebrate; format: in vivo; conditions: Phytophthora, in Solanum lycopersicum, 24 h, read-out: PHYTIN in vivo 1 Day Protectant
# [7] = tested on: Puccinia recondita—PUCCRT; assay: Brown Rust of Wheat, in vivo whole plant, 24 Hour Protectant; conditions: Puccinia; 100 ppm spray, wheat, 24 hour protectant; control of fungal infection vs untreated plants; read-out: PUCCRT in vivo 1 Day Protectant
# Erysiphe graminis—ERYSGT = assay: Powdery Mildew of Wheat, in vivo whole plant, 24 Hour Protectant; conditions: Erysiphe; 100 ppm spray, wheat, 24 hour protectant; control of fungal infection vs untreated plants; read-out: ERYSGT in vivo 1 Day Protectant
# Septoria tritici—SEPTTR = assay: Leaf Blotch of Wheat, in vivo whole plant, 24 Hour Protectant; conditions: Zymoseptoria tritici, 24 h, 100 ppm spray, wheat, 24 hour protectant; control of fungal infection vs untreated plants; read-out: SEPTTR in vivo 1 Day Protectant
# [8] = tested on: Leptosphaeria nodorum—LEPTNO; assay: Glume Blotch of Wheat, in vivo whole plant, 24 Hour Protectant; conditions: Leptosphaeria; 100 ppm spray, wheat, 24 hour protectant; control of fungal infection vs untreated plants; read-out: LEPTNO in vivo 1 Day Protectant
SMILES,inhibition at 25 ppm [1] [%],inhibition at 25 ppm [2] [%],inhibition at 25 ppm [3] [%],inhibition at 25 ppm [4] [%],inhibition at 25 ppm (Ustilago maydis (USTIMA)) [%],inhibition at 25 ppm [5] [%],pest or weed control at 100 ppm [6] [%],pest or weed control at 100 ppm [7] [%],pest or weed control at 100 ppm (Erysiphe graminis—ERYSGT) [%],pest or weed control at 100 ppm (Septoria tritici—SEPTTR) [%],pest or weed control at 100 ppm [8] [%],inhibition at 25 ppm ([3]; 25 ppm in growth medium) [%],inhibition at 25 ppm ([4]; 25 ppm in growth medium) [%]
COc1ccnc(C(=O)N[C@H]2C[C@@H](O[Si](C)(C)C(C)(C)C)O[C@@H](C)[C@@H]2OCc2ccccc2)c1O [Compound 328],< 80,< 80,< 80,< 80,< 80,> 80,< 25,< 25,< 25,25 to 74,25 to 74,,
COc1ccnc(C(=O)NC2O[C@H](CO)[C@H]3OC(C)(C)O[C@@H]23)c1O (stereo partly shown) [Compound 329],< 80,< 80,,,< 80,< 80,< 25,25 to 74,< 25,25 to 74,25 to 74,< 80,< 80
COc1ccnc(C(=O)N[C@@H]2OC[C@@H](OC(C)=O)[C@H](OC(C)=O)[C@H]2OC(C)=O)c1O [Compound 330],< 80,< 80,,,< 80,< 80,< 25,< 25,< 25,< 25,< 25,< 80,< 80
CCCO[C@@H]1[C@@H](OCCC)[C@H](OCCC)CO[C@H]1NC(=O)c1nccc(OC)c1O [Compound 331],> 80,< 80,,,< 80,< 80,< 25,< 25,< 25,< 25,25 to 74,< 80,< 80
COc1ccnc(C(=O)N[C@@H]2OC[C@@H](OCc3ccccc3)[C@H](OCc3ccccc3)[C@H]2OCc2ccccc2)c1O [Compound 332],< 80,< 80,,,< 80,< 80,< 25,< 25,< 25,25 to 74,25 to 74,< 80,< 80
COc1ccnc(C(=O)N[C@H]2O[C@@H](C)[C@@H](OC(C)=O)[C@@H](OC(C)=O)[C@@H]2OC(C)=O)c1O [Compound 333],< 80,< 80,,,< 80,< 80,< 25,25 to 74,< 25,25 to 74,25 to 74,< 80,< 80
"COc1ccnc(C(=O)N[C@@H]2[C@@H](O)[C@H](O)[C@@H](CO)O[C@@H]2O)c1O [Compound 334, N-(3-HYDROXY-4-METHOXY-2-PYRIDYLCARBONYL)-2-AMINO-2-DEOXY-alpha-D-GLUCOPYRANOSE]",< 80,< 80,,,< 80,< 80,< 25,< 25,< 25,< 25,25 to 74,< 80,< 80
COc1ccnc(C(=O)N[C@H]2[C@@H](OC(C)=O)O[C@H](COC(C)=O)[C@@H](OC(C)=O)[C@@H]2OC(C)=O)c1O [Compound 335],< 80,< 80,,,< 80,< 80,25 to 74,< 25,< 25,< 25,25 to 74,< 80,< 80
